Experiments:
Macrophage = assay: Cytotoxicity against human MDM cells assessed as reduction in cell viability at 10 uM incubated for 24 hrs by MTT assay; format: toxicity, cell-based; conditions: macrophage cell line
[1] = target: T1, Polyunsaturated fatty acid 5-lipoxygenase (Homo sapiens) (UniProt P09917); assay: Inhibition of 5-LOX in human Neutrophil at 10 uM preincubated with compound for 15 mins followed by A23187 addition measured after 10 mins by RP-HPLC analysis relative to control; format: cell-based; conditions: time 25.0 min
T1 sequence (whole entry): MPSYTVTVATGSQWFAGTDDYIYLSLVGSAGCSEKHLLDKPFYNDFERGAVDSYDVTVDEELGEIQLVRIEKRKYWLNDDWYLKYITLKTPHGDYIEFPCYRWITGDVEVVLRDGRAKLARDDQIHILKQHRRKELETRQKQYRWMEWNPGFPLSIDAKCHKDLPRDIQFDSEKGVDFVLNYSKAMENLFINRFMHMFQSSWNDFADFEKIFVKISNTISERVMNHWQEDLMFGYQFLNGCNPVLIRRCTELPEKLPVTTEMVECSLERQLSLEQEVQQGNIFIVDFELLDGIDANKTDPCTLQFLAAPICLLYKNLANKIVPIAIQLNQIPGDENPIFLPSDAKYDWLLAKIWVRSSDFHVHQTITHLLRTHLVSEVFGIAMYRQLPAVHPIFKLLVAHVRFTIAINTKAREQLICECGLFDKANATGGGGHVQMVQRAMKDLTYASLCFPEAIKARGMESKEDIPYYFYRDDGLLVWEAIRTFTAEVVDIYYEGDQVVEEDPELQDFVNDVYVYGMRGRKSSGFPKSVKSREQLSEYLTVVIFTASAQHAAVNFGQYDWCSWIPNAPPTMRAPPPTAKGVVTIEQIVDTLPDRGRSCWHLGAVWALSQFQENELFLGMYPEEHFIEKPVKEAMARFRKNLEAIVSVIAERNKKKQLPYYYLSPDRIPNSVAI

Macrophage cell line [2] = assay: Effect on lipid mediator formation in human M2-like phenotype MDM cells by measuring MaR2 formation at 10 uM pre-incubated for 15 mins followed by SACM stimulation and measured after 90 mins by UPLC-MS/MS analysis (reference value: 16 +/- 1 pg/ml); format: functional; conditions: time 105 min, 1.75 h
Macrophage cell line [3] = assay: Effect on lipid mediator formation in human M1-like phenotype MDM cells by measuring 7-HDHA formation at 10 uM pre-incubated for 15 mins followed by SACM stimulation and measured after 90 mins by UPLC-MS/MS analysis (reference value: 118 +/- 14 pg/ml); format: functional; conditions: time 105 min, 1.75 h
Macrophage cell line [4] = assay: Effect on lipid mediator formation in human M2-like phenotype MDM cells by measuring 5,15-diHETE formation at 10 uM pre-incubated for 15 mins followed by SACM stimulation and measured after 90 mins by UPLC-MS/MS analysis relative to control; format: functional; conditions: time 105 min, 1.75 h
Macrophage cell line [5] = assay: Effect on lipid mediator formation in human M1-like phenotype MDM cells by measuring 5-HEPE formation at 10 uM pre-incubated for 15 mins followed by SACM stimulation and measured after 90 mins by UPLC-MS/MS analysis (reference value: 560 +/- 160 pg/ml); format: functional; conditions: time 105 min, 1.75 h
Macrophage cell line [6] = assay: Effect on lipid mediator formation in human M2-like phenotype MDM cells by measuring DHA formation at 10 uM pre-incubated for 15 mins followed by SACM stimulation and measured after 90 mins by UPLC-MS/MS analysis relative to control; format: functional; conditions: time 105 min, 1.75 h
Macrophage cell line [7] = assay: Effect on lipid mediator formation in human M2-like phenotype MDM cells by measuring PDX1 formation at 10 uM pre-incubated for 15 mins followed by SACM stimulation and measured after 90 mins by UPLC-MS/MS analysis (reference value: 13 +/- 3 pg/ml); format: functional; conditions: time 105 min, 1.75 h
Macrophage cell line [8] = assay: Effect on lipid mediator formation in human M2-like phenotype MDM cells by measuring 12-HEPE formation at 10 uM pre-incubated for 15 mins followed by SACM stimulation and measured after 90 mins by UPLC-MS/MS analysis relative to control; format: functional; conditions: time 105 min, 1.75 h
Macrophage cell line [9] = assay: Effect on lipid mediator formation in human M1-like phenotype MDM cells by measuring 15-HETE formation at 10 uM pre-incubated for 15 mins followed by SACM stimulation and measured after 90 mins by UPLC-MS/MS analysis relative to control; format: functional; conditions: time 105 min, 1.75 h
Macrophage cell line [10] = assay: Effect on lipid mediator formation in human M1-like phenotype MDM cells by measuring 17-HDHA formation at 10 uM pre-incubated for 15 mins followed by SACM stimulation and measured after 90 mins by UPLC-MS/MS analysis (reference value: 360 +/- 89 pg/ml); format: functional; conditions: time 105 min, 1.75 h
Macrophage cell line [11] = assay: Effect on lipid mediator formation in human M1-like phenotype MDM cells by measuring 5,15-diHETE formation at 10 uM pre-incubated for 15 mins followed by SACM stimulation and measured after 90 mins by UPLC-MS/MS analysis (reference value: 122 +/- 58 pg/ml); format: functional; conditions: time 105 min, 1.75 h
Macrophage cell line [12] = assay: Effect on lipid mediator formation in human M2-like phenotype MDM cells by measuring 14-HDHA formation at 10 uM pre-incubated for 15 mins followed by SACM stimulation and measured after 90 mins by UPLC-MS/MS analysis relative to control; format: functional; conditions: time 105 min, 1.75 h
Macrophage cell line [13] = assay: Effect on lipid mediator formation in human M1-like phenotype MDM cells by measuring PGF2alpha formation at 10 uM pre-incubated for 15 mins followed by SACM stimulation and measured after 90 mins by UPLC-MS/MS analysis relative to control; format: functional; conditions: time 105 min, 1.75 h
Macrophage cell line [14] = assay: Effect on lipid mediator formation in human M2-like phenotype MDM cells by measuring 5-HETE formation at 10 uM pre-incubated for 15 mins followed by SACM stimulation and measured after 90 mins by UPLC-MS/MS analysis relative to control; format: functional; conditions: time 105 min, 1.75 h
Macrophage cell line [15] = assay: Effect on lipid mediator formation in human M2-like phenotype MDM cells by measuring TXB2 formation at 10 uM pre-incubated for 15 mins followed by SACM stimulation and measured after 90 mins by UPLC-MS/MS analysis (reference value: 4488 +/- 452 pg/ml); format: functional; conditions: time 105 min, 1.75 h
Macrophage cell line [16] = assay: Effect on lipid mediator formation in human M1-like phenotype MDM cells by measuring PGE2 formation at 10 uM pre-incubated for 15 mins followed by SACM stimulation and measured after 90 mins by UPLC-MS/MS analysis relative to control; format: functional; conditions: time 105 min, 1.75 h
Macrophage cell line [17] = assay: Effect on lipid mediator formation in human M2-like phenotype MDM cells by measuring 5-HEPE formation at 10 uM pre-incubated for 15 mins followed by SACM stimulation and measured after 90 mins by UPLC-MS/MS analysis relative to control; format: functional; conditions: time 105 min, 1.75 h
Macrophage cell line [18] = assay: Effect on lipid mediator formation in human M2-like phenotype MDM cells by measuring MaR1 formation at 10 uM pre-incubated for 15 mins followed by SACM stimulation and measured after 90 mins by UPLC-MS/MS analysis relative to control; format: functional; conditions: time 105 min, 1.75 h
Macrophage cell line [19] = assay: Effect on lipid mediator formation in human M2-like phenotype MDM cells by measuring 4-HDHA formation at 10 uM pre-incubated for 15 mins followed by SACM stimulation and measured after 90 mins by UPLC-MS/MS analysis (reference value: 58 +/- 8 pg/ml); format: functional; conditions: time 105 min, 1.75 h
Macrophage cell line [20] = assay: Effect on lipid mediator formation in human M2-like phenotype MDM cells by measuring 15-HEPE formation at 10 uM pre-incubated for 15 mins followed by SACM stimulation and measured after 90 mins by UPLC-MS/MS analysis relative to control; format: functional; conditions: time 105 min, 1.75 h

inhibition [1] [%]	SMILES	Activity (Macrophage)	Activity (Macrophage cell line [2]) [pg/mL]	Activity (Macrophage cell line [3]) [pg/mL]	Activity (Macrophage cell line [4]) [%]	Activity (Macrophage cell line [5]) [pg/mL]	Activity (Macrophage cell line [6]) [%]	Activity (Macrophage cell line [7]) [pg/mL]	Activity (Macrophage cell line [8]) [%]	Activity (Macrophage cell line [9]) [%]	Activity (Macrophage cell line [10]) [pg/mL]	Activity (Macrophage cell line [11]) [pg/mL]	Activity (Macrophage cell line [12]) [%]	Activity (Macrophage cell line [13]) [%]	Activity (Macrophage cell line [14]) [%]	Activity (Macrophage cell line [15]) [pg/mL]	Activity (Macrophage cell line [16]) [%]	Activity (Macrophage cell line [17]) [%]	Activity (Macrophage cell line [18]) [%]	Activity (Macrophage cell line [19]) [pg/mL]	further results
> 50	COc1ccc(C2=C/C(=C/c3ccc(O)cc3O)C(=O)O2)cc1	Non-Toxic	36	36	39	62	106	18	144	90	380	16	179	89	9	3416	93	18	189	49	Activity (Macrophage cell line [20]): 157%
> 50	Oc1ccc(CCC2CCC(c3ccc(O)cc3)CO2)cc1 (configuration not stated)	Non-Toxic	31	45	61	98	107	15	128	85	485	37	139	70	25	3850	69	34	106	58	Activity (Macrophage cell line [20]): 140%

From ChEMBL document CHEMBL5528002, “Identification of selective 5-LOX and FLAP inhibitors as novel anti-inflammatory agents by ligand-based virtual screening” (Eur J Med Chem, 2024)
